Assay results as given in PMC12818720, “Nanoengineered Self-Assembling Peptides with Increased Proteolytic Stability Promote Wound Healing” (ACS Applied Materials & Interfaces, 2025).
Ends that are not written are not given here.

How the values were obtained:
HaCaT cells = test: Cytotoxicity / metabolic activity, AlamarBlue direct contact assay; assay type: cell-based, human; conditions: assembly performed in the presence of Cu2+ (1:1), 24 h, serum-free DMEM-HG
Procedure: As the designed systems target wound healing, we assessed their cytocompatibility toward human keratinocyte cell line HaCaT.
The cytotoxicity evaluation of the peptides and their supramolecular assemblies was evaluated by direct contact assay with HaCaT cells using the AlamarBlue HS Cell Viability Reagent assay (Biorad). Briefly, HaCaT cells were cultured in DMEM-HG supplemented with 10% FBS (2.5 × 10^4 cell/well) in 96-well plates for 24 h. Peptide solutions (10 mM) were prepared 24 h before the assay and sterilized (UV, 30 min). These solutions were diluted in serum-free DMEM-HG just prior to the assay to obtain concentrations ranging from 1 to 0.05 mM and added to the cultured HaCaT cells. Cultures with the peptides were mantained for 24 h and then the medium was aspirated, and AlamarBlue HS Cell Viability solution (10% (v/v) in DMEM-HG) was added to each well. The plates were incubated for 3 h at 37 °C with 5% CO2. The medium from each well was transferred to a black 96-well plate, and the fluorescence was measured using a microplate reader (Synergy, Bio-Tek) with an excitation wavelength of 550 nm and an emission wavelength of 590 nm. Cells cultured on tissue culture polystyrene (TCPS) were used as a positive control and cells treated with 20% DMSO were used as a negative one.

proteinase K = molecular target: T1, proteinase K (Parengyodontium album, UniProt P06873); test: Stability of peptide assemblies against proteinase K (HPLC); assay type: in vitro ADME; conditions: in the presence of Cu2+, peptide 2 mM
T1 construct: purchased AppliChem
Procedure: The chemical structure and molecular packing of the peptides play a crucial role in their stability by (un)-shielding the amide bonds from enzymatic degradation. − We investigated the stability of the supramolecular assemblies generated by Pep1–Pep3 in the presence of proteinase K. This enzyme was selected because of its activity toward a broad range of peptides/proteins that spans different temperatures (25–65 °C) and pH values (7–12).
A stock solution of proteinase K (50 μg/mL, AppliChem) was prepared in PBS. Peptide assemblies were prepared as described in Section 1 day prior the assay. These samples were incubated with proteinase K (final concentration: 10 μg/mL for proteinase K and 2 mM for Cu-free or Cu-complexed Pep1-Pep3). At each designated time point, an aliquot of 150 μL was collected, and the enzymatic activity was stopped by adding 300 μL of 1:1 H2O/ACN with 0.1% TFA. The aliquot was quantitatively assessed using HPLC under the conditions described in Section . Each sample was run in duplicate to ensure reliable results.

T1 sequence (P06873 106-384): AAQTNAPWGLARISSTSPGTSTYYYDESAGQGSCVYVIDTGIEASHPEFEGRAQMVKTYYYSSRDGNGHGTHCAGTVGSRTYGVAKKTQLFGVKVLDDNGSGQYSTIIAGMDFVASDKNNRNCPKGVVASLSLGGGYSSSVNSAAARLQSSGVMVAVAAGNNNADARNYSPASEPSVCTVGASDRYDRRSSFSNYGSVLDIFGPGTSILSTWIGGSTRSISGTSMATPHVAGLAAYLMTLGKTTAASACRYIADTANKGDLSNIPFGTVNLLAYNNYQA

Sequence	concentration above which cytotoxicity was observed (HaCaT cells)	peptide not degraded after 6 h of incubation with proteinase K (proteinase K; proteinase K 10 μg/mL in PBS, 6 h, HPLC read-out, run in duplicate)	initial concentration still present after 24 h with proteinase K (proteinase K; proteinase K 10 μg/mL in PBS, 24 h, HPLC read-out, run in duplicate)	relative stability to proteinase K (in words) (proteinase K; proteinase K 10 μg/mL, HPLC)
FFFFDGHK [Pep2]	above 250 μM			
FFFFDKHG [Pep3]	above 250 μM	more than 90%	60%	most stable
